# Measured values reported in ChEMBL document CHEMBL1123730, “Synthesis and pharmacological evaluation of a new class of 2-(2-aminothiazol-4-yl)-2-hydrazonoacetamido cephalosporins” (J Med Chem, 1987).
# Experiments:
# [1] = Geometrical average of minimum inhibitory concentration was determined in isosensitest broth against gram-positive strains.; assay type: functional
# [2] = Geometrical average of minimum inhibitory concentration was determined in isosensitest broth against gram-negative strains.; assay type: functional
# Serratia [3] = assay: Geometrical average of minimum bactericidal concentration was determined in isosensitest broth against Serratia; assay type: functional
# Escherichia coli [4] = assay: In vivo protective dose was determined in infected swiss mice (120/strain) infected ip with Escherichia coli ISM with an inoculum size-0.5 mL of 10 E6 CFU/mL of suspension. Activity value range is 0.118-0.615; assay type: functional
# Sarcina [5] = assay: Geometrical average of minimum bactericidal concentration was determined in isosensitest broth against Sarcina; assay type: functional
# Neisseria perflava [6] = assay: Geometrical average of minimum bactericidal concentration was determined in isosensitest broth against Neisseria perfl.; assay type: functional
# Klebsiella pneumoniae [7] = assay: In vivo protective dose was determined in infected swiss mice (120/strain) infected ip with Klebsiella pneumoniae 102 with an inoculum size-0.5 mL of 10 E5 CFU/mL of suspension. Activity value range is 1.82-7.92; assay type: functional
# Alcaligenes [8] = assay: Geometrical average of minimum bactericidal concentration was determined in isosensitest broth against Alcaligenes; assay type: functional
# Salmonella [9] = assay: Geometrical average of minimum inhibitory concentration was determined in isosensitest broth against Salmonella; assay type: functional
# Escherichia coli [10] = assay: Geometrical average of minimum inhibitory concentration was determined in isosensitest broth against Escherichia coli; assay type: functional
# Enterobacter [11] = assay: Geometrical average of minimum bactericidal concentration was determined in isosensitest broth against Enterobacter; assay type: functional
# Pseudomonas [12] = assay: Geometrical average of minimum bactericidal concentration was determined in isosensitest broth against Pseudomonas; assay type: functional
# Staphylococcus [13] = assay: (§1) Geometrical average of minimum inhibitory concentration was determined in isosensitest broth against Staphylococcus; assay type: functional
# Proteus [14] = assay: Geometrical average of minimum inhibitory concentration was determined in isosensitest broth against Proteus; assay type: functional, Proteus sp.
# Staphylococcus [15] = assay: (§2) Geometrical average of minimum bactericidal concentration was determined in isosensitest broth against Staphylococcus; assay type: functional
# Alcaligenes [16] = assay: Geometrical average of minimum inhibitory concentration was determined in isosensitest broth against Alcaligenes; assay type: functional
# Bacillus [17] = assay: Geometrical average of minimum inhibitory concentration was determined in isosensitest broth against Bacillus; assay type: functional
# Streptococcus [18] = assay: Geometrical average of minimum inhibitory concentration was determined in isosensitest broth against Streptococcus; assay type: functional
# Bacillus [19] = assay: Geometrical average of minimum bactericidal concentration was determined in isosensitest broth against Bacillus; assay type: functional
# Staphylococcus [20] = assay: as §2; assay type: functional; remark: listed apart in the source
# Escherichia coli [21] = assay: Minimum inhibitory concentration was determined against Escherichia coli ISM with an inoculum size-0.5 mL of 10 E6 CFU/mL of suspension; assay type: functional
# Salmonella [22] = assay: Geometrical average of minimum bactericidal concentration was determined in isosensitest broth against Salmonella; assay type: functional
# [23] = Geometrical average of minimum inhibitory concentration in isosensitest broth against, gram-negative strains.; assay type: functional
# Serratia [24] = assay: Geometrical average of minimum inhibitory concentration was determined in isosensitest broth against Serratia; assay type: functional
# Proteus [25] = assay: Geometrical average of minimum bactericidal concentration was determined in isosensitest broth against Proteus; assay type: functional, Proteus sp.
# Sarcina [26] = assay: Geometrical average of minimum inhibitory concentration was determined in isosensitest broth against Sarcina; assay type: functional
# Streptococcus [27] = assay: Geometrical average of minimum bactericidal concentration was determined in isosensitest broth against Streptococcus; assay type: functional
# Pseudomonas [28] = assay: Geometrical average of minimum inhibitory concentration was determined in isosensitest broth against Pseudomonas; assay type: functional
# Klebsiella [29] = assay: Geometrical average of minimum inhibitory concentration was determined in isosensitest broth against Klebsiella; assay type: functional
# [30] = Geometrical average of minimum inhibitory concentration was determined in isosensitest broth against, gram-positive strains.; assay type: functional
# Staphylococcus [31] = assay: as §1; assay type: functional; remark: listed apart in the source
# Klebsiella pneumoniae [32] = assay: Minimum inhibitory concentration was determined against Klebsiella pneumoniae 102 with an inoculum size-0.5 mL of 10 E5 CFU/mL of suspension; assay type: functional
# Enterobacter [33] = assay: Geometrical average of minimum inhibitory concentration was determined in isosensitest broth against Enterobacter; assay type: functional
# Neisseria perflava [34] = assay: Geometrical average of minimum inhibitory concentration was determined in isosensitest broth against Neisseria perfl.; assay type: functional
# Escherichia coli [35] = assay: Geometrical average of minimum bactericidal concentration was determined in isosensitest broth against Escherichia coli; assay type: functional
# Klebsiella [36] = assay: Geometrical average of minimum bactericidal concentration was determined in isosensitest broth against Klebsiella; assay type: functional
# [37] = Geometrical average of minimum inhibitory concentration was determined in isosensitest broth against,gram-negative strains.; assay type: functional
# Klebsiella pneumoniae [38] = assay: In vivo protective dose was determined in infected swiss mice (120/strain) infected ip Klebsiella pneumoniae 102 with an inoculum size-0.5 mL of 10 E5 CFU/mL of suspension. Activity value range is 5.27-15.35; assay type: functional
# Escherichia coli [39] = assay: In vivo protective dose was determined in infected swiss mice (120/strain) infected ip with Escherichia coli ISM with an inoculum size-0.5 mL of 10 E6 CFU/mL of suspension. Activity value range is 3.47-6.63; assay type: functional
# Sarcina [40] = assay: Geometrical average of minimum inhibitory concentration (MIC) in isosensitest broth against Sarcina; assay type: functional
# Enterobacter [41] = assay: Geometrical average of minimum bactericidal concentration was determined in isosensitest against Enterobacter; assay type: functional
# Sarcina [42] = assay: Geometrical average of minimum bactericidal concentration was determined in isosensitest against Sarcina; assay type: functional
# Staphylococcus [43] = assay: (§3) Geometrical average of minimum bactericidal concentration was determined in isosensitest against Staphylococcus; assay type: functional
# Klebsiella pneumoniae [44] = assay: Minimum inhibitory concentration against Klebsiella pneumoniae 102 with an inoculum size-0.5 mL of 10 E5 CFU/mL of suspension; assay type: functional
# Alcaligenes [45] = assay: Geometrical average of minimum bactericidal concentration was determined in isosensitest against Alcaligenes; assay type: functional
# Salmonella typhimurium [46] = assay: In vivo protective dose was determined in infected swiss mice (120/strain) infected ip against Salmonella Typhimurium T.O with an inoculum size-0.5 mL of 10 E6 CFU/mL of suspension; assay type: functional, Salmonella enterica subsp. enterica serovar Typhimurium; details: Salmonella enterica
# Staphylococcus [47] = assay: as §3; assay type: functional; remark: listed apart in the source
# Bacillus [48] = assay: Geometrical average of minimum bactericidal concentration was determined in isosensitest against Bacillus; assay type: functional
# Escherichia coli [49] = assay: Geometrical average of minimum bactericidal concentration was determined in isosensitest broth against, Escherichia coli; assay type: functional
# Streptococcus [50] = assay: Geometrical average of minimum bactericidal concentration was determined in isosensitest against Streptococcus; assay type: functional
# Neisseria perflava [51] = assay: Geometrical average of minimum bactericidal concentration was determined in isosensitest against Neisseria perfl.; assay type: functional
# Escherichia coli [52] = assay: Minimum inhibitory concentration against, Escherichia coli ISM with an inoculum size-0.5 mL of 10 E6 CFU/mL of suspension); assay type: functional
# Salmonella typhimurium [53] = assay: Minimum inhibitory concentration against Salmonella Typhimurium T.O with an inoculum size-0.5 mL of 10 E6 CFU/mL of suspension; assay type: functional, Salmonella enterica subsp. enterica serovar Typhimurium; details: Salmonella enterica
smiles,measurement,setting,value
Cn1nnnc1SCC1=C(C(=O)O)N2C(=O)[C@@H](NC(=O)/C(=N/NCC(=O)O)c3csc(N)n3)[C@H]2SC1,MIC,[1],18 µg/mL
same,MIC,[2],8.59 µg/mL
Cn1nnnc1SCC1=C(C(=O)O)N2C(=O)[C@@H](NC(=O)/C(=N/NC(N)=O)c3csc(N)n3)[C@H]2SC1,MIC,[1],76.5 µg/mL
same,MIC,[2],16.8 µg/mL
Cn1nnnc1SCC1=C(C(=O)O)N2C(=O)[C@@H](NC(=O)/C(=N\NC(N)=O)c3csc(N)n3)[C@H]2SC1,MIC,[1],18.6 µg/mL
same,MIC,[2],3.54 µg/mL
CCOC(=O)CN/N=C(/C(=O)N[C@@H]1C(=O)N2C(C(=O)O)=C(CSc3nnnn3C)CS[C@H]12)c1csc(N)n1,MIC,[1],13.2 µg/mL
same,MIC,[2],5.45 µg/mL
CC(=O)OCC1=C(C(=O)O)N2C(=O)[C@@H](NC(=O)/C(=N/N)c3csc(N)n3)[C@H]2SC1,MIC,[1],7.35 µg/mL
same,MIC,[2],1.96 µg/mL
CO/N=C(\C(=O)N[C@@H]1C(=O)N2C(C(=O)O)=C(COC(C)=O)CS[C@H]12)c1csc(N)n1 [CEFOTAXIME],MBC,Serratia [3],0.49 µg/mL
same,ED50,Escherichia coli [4],0.27 mg/kg
same,MBC,Sarcina [5],0.04 µg/mL
same,MBC,Neisseria perflava [6],< 0.09 µg/mL
same,ED50,Klebsiella pneumoniae [7],3.8 mg/kg
same,MBC,Alcaligenes [8],3.12 µg/mL
same,MIC,Salmonella [9],0.24 µg/mL
same,MIC,Escherichia coli [10],0.17 µg/mL
same,MBC,Enterobacter [11],1.97 µg/mL
same,MBC,Pseudomonas [12],22.3 µg/mL
same,MIC,Staphylococcus [13],1.61 µg/mL
same,MIC,Proteus [14],0.08 µg/mL
same,MBC,Staphylococcus [15],25 µg/mL
same,MIC,Alcaligenes [16],1.56 µg/mL
same,MIC,Bacillus [17],25 µg/mL
same,MIC,Streptococcus [18],12.3 µg/mL
same,MBC,Bacillus [19],29.7 µg/mL
same,MBC,Staphylococcus [20],3.23 µg/mL
same,MIC,Escherichia coli [21],0.55 µg/mL
same,MBC,Salmonella [22],0.38 µg/mL
same,MIC,[23],0.17 µg/mL
same,MIC,Serratia [24],0.09 µg/mL
same,MBC,Proteus [25],0.3 µg/mL
same,MIC,Sarcina [26],0.04 µg/mL
same,MBC,Streptococcus [27],35.4 µg/mL
same,MIC,Pseudomonas [28],21.8 µg/mL
same,MIC,Klebsiella [29],0.12 µg/mL
same,MIC,[30],2.09 µg/mL
same,MIC,Staphylococcus [31],5.25 µg/mL
same,MIC,Klebsiella pneumoniae [32],0.13 µg/mL
same,MIC,Enterobacter [33],0.31 µg/mL
same,MIC,Neisseria perflava [34],< 0.09 µg/mL
same,MBC,Escherichia coli [35],0.25 µg/mL
same,MBC,Klebsiella [36],0.14 µg/mL
CO/N=C(\C(=O)N[C@@H]1C(=O)N2C(C(=O)O)=C(COC(N)=O)CS[C@H]12)c1ccco1 [CEFUROXIME],MIC,[37],10.6 µg/mL
same,ED50,Klebsiella pneumoniae [38],9 mg/kg
same,MBC,Serratia [3],28 µg/mL
same,ED50,Escherichia coli [39],4.8 mg/kg
same,MIC,Salmonella [9],3.12 µg/mL
same,MIC,Escherichia coli [10],2.2 µg/mL
same,MIC,Sarcina [40],0.39 µg/mL
same,MBC,Enterobacter [41],25 µg/mL
same,MBC,Sarcina [42],0.55 µg/mL
same,MBC,Staphylococcus [43],17.7 µg/mL
same,MBC,Pseudomonas [12],> 100 µg/mL
same,MIC,Klebsiella pneumoniae [44],12.5 µg/mL
same,MIC,Staphylococcus [13],1.06 µg/mL
same,MIC,Proteus [14],1.97 µg/mL
same,MIC,Alcaligenes [16],50 µg/mL
same,MIC,Bacillus [17],35.4 µg/mL
same,MIC,Streptococcus [18],15.1 µg/mL
same,MBC,Alcaligenes [45],100 µg/mL
same,MBC,Salmonella [22],6.7 µg/mL
same,ED50,Salmonella typhimurium [46],> 90 mg/kg
same,MIC,Serratia [24],12.4 µg/mL
same,MBC,Proteus [25],3.9 µg/mL
same,MBC,Staphylococcus [47],1.67 µg/mL
same,MBC,Bacillus [48],35.4 µg/mL
same,MBC,Escherichia coli [49],4.42 µg/mL
same,MIC,Pseudomonas [28],> 100 µg/mL
same,MIC,Klebsiella [29],3.71 µg/mL
same,MIC,[30],1.11 µg/mL
same,MIC,Staphylococcus [31],10.5 µg/mL
same,MBC,Streptococcus [50],59.5 µg/mL
same,MIC,Enterobacter [33],7.01 µg/mL
same,MBC,Neisseria perflava [51],0.78 µg/mL
same,MIC,Neisseria perflava [34],0.39 µg/mL
same,MBC,Klebsiella [36],4.68 µg/mL
same,MIC,Escherichia coli [52],2.2 µg/mL
same,MIC,Salmonella typhimurium [53],1.56 µg/mL
